Laboratory results reported in ChEMBL document CHEMBL6078647 (J Med Chem, 2024).
One block for each molecule: values may come before it. The source made the active and inactive calls. The calls are words filed in the database; no cut-off is given here.

Columns and labels:
[1] = target: T1, Type-1 angiotensin II receptor (Homo sapiens) (UniProt P30556); experiment: (§1) Agonist activity at Flag-tagged AT1R (unknown origin) extracted from HEK293T cell membrane co expressing YPET-ARRB1 assessed as beta-arrestin 1 recruitment using NanoGlo as substrate preincubated for 30 mins followed by substrate addition for 10 mins by BRET assay; format: functional, cell membranes
T1 sequence (whole entry): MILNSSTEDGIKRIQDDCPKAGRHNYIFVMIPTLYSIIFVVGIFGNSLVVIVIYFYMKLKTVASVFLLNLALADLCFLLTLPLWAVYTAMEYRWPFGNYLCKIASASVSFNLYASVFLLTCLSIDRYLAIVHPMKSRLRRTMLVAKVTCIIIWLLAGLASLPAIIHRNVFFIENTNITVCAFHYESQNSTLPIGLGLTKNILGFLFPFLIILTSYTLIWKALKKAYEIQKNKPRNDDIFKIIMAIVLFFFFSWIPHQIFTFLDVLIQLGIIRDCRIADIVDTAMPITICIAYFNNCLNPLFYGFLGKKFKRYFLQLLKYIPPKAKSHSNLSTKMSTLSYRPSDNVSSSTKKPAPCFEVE

[2] = system: Cerebral artery; experiment: Vaso-constriction activity in male wistar rat middle cerebral artery assessed as arterial contraction; format: functional, tissue-based
[3] = target: T1, Type-1 angiotensin II receptor (Homo sapiens); experiment: (§2) Agonist activity at Flag-tagged AT1R (unknown origin) extracted from HEK293 cell membrane co expressing YPET-ARRB2 assessed as beta-arrestin 2 recruitment using NanoGlo as substrate preincubated for 30 mins followed by substrate addition for 10 mins by BRET assay; format: functional, cell membranes
[4] = target: T1, Type-1 angiotensin II receptor (Homo sapiens); experiment: Induction of human NLuc-tagged AT1R (unknown origin) internalization in HEK293 cells co expressing venus-MP using NanoGlo as substrate preincubated for 30 mins followed by substrate addition for 10 mins by BRET assay; format: functional
[5] = target: T2, Type-1 angiotensin II receptor (Homo sapiens, UniProt P30556); experiment: Binding affinity to human AT1R extracted from HEK293T cell membrane assessed as inhibition constant in presence of [125I][Sar1 Ile8]-angiotensin II by competitive radioligand binding assay; format: cell membranes
T2 sequence (P30556 whole entry): T1 sequence (whole entry)

[6] = system: Cerebral artery; experiment: Vaso-constriction activity in male wistar rat middle cerebral artery assessed as arterial contraction at 1 uM; format: functional, tissue-based
[7] = target: T3, Type-2 angiotensin II receptor (Homo sapiens, UniProt P50052); experiment: Binding affinity to human AT2R extracted from HEK293T cell membrane assessed as inhibition constant in presence of [125I][Sar1 Ile8]-angiotensin II by competitive radioligand binding assay; format: cell membranes
T3 sequence (P50052 whole entry): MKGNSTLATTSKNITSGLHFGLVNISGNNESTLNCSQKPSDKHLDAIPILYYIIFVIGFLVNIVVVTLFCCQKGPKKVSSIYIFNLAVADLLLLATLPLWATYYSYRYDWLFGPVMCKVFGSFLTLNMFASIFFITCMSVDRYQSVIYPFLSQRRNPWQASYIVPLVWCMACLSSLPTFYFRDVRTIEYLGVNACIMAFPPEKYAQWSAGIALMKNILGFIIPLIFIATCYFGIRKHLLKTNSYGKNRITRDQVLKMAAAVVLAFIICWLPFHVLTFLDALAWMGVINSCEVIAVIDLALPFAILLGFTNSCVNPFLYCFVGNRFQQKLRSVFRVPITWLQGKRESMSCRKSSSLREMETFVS

[8] = Fluorescence property of compound in HEPES buffer assessed as quantum yield; format: physicochemical
[9] = target: T1, Type-1 angiotensin II receptor (Homo sapiens); experiment: Binding affinity to human GFP-tagged AT1R (unknown origin) extracted from HEK293 cell membrane assessed as colocalization of AT1R in endocytic vesicles at 100 nM incubated for 30 mins by epifluorescence microscopic analysis; format: cell membranes
[10] = species: Homo sapiens; experiment: Selectivity index, ratio of Ki for binding affinity to human AT1R extracted from HEK293T cell membrane in presence of [125I][Sar1 Ile8]-angiotensin II by competitive radioligand binding assay to Ki for binding affinity to human AT2R extracted from HEK293T cell membrane in presence of [125I][Sar1 Ile8]-angiotensin II by competitive radioligand binding assay
[11] = target: T4, Type-2 angiotensin II receptor (Homo sapiens) (UniProt P50052); experiment: Binding affinity to human GFP-tagged AT2R extracted from HEK293 cell membrane assessed as colocalization of AT2R in plasma membrane at 100 nM incubated for 30 mins by epifluorescence microscopic analysis; format: cell membranes
T4 sequence (whole entry): T3 sequence (P50052 whole entry)

[12] = target: T1, Type-1 angiotensin II receptor (Homo sapiens); experiment: Agonist activity at AT1R (unknown origin) extracted from HEK293 cell membrane coexpressing NLuc and Venus-miniG assessed as miniGq protein recruitment at 1 uM using NanoGlo as substrate preincubated for 30 mins followed by substrate addition for 10 mins by BRET assay; format: functional, cell membranes; settings: time 40.0 min
[13] = target: T4, Type-2 angiotensin II receptor (Homo sapiens); experiment: Binding affinity to human GFP-tagged AT2R extracted from HEK293 cell membrane assessed as colocalization of AT2R in plasma membrane at 50 nM incubated for 30 mins by epifluorescence microscopic analysis; format: cell membranes; settings: filed as agonist
[14] = target: T1, Type-1 angiotensin II receptor (Homo sapiens); experiment: as §2, with “recruitment at 1 uM by measuring maximum efficacy” for “recruitment”; format: functional, cell membranes; settings: filed as agonist
[15] = target: T1, Type-1 angiotensin II receptor (Homo sapiens); experiment: as §1, with “HEK293” for “HEK293T”, “recruitment at 1 uM by measuring maximum efficacy” for “recruitment”; format: functional, cell membranes; settings: filed as agonist
[16] = target: T1, Type-1 angiotensin II receptor (Homo sapiens); experiment: Binding affinity to human GFP-tagged AT1R (unknown origin) extracted from HEK293 cell membrane assessed as colocalization of AT1R in endocytic vesicles at 50 nM incubated for 30 mins by epifluorescence microscopic analysis; format: cell membranes; settings: filed as agonist
[17] = target: T4, Type-2 angiotensin II receptor (Homo sapiens); experiment: Binding affinity to human GFP-tagged AT2R extracted from HEK293 cell membrane assessed as colocalization of AT2R in plasma membrane at 30 nM incubated for 30 mins by epifluorescence microscopic analysis; format: cell membranes; settings: filed as agonist
[18] = target: T1, Type-1 angiotensin II receptor (Homo sapiens); experiment: Agonist activity at Flag-tagged AT1R (unknown origin) extracted from HEK293 cell membrane assessed as increase in intracellular calcium at >100 nM incubated for 30 mins by microplate reader analysis; format: functional, cell membranes; settings: filed as agonist
[19] = target: T4, Type-2 angiotensin II receptor (Homo sapiens); experiment: Binding affinity to GFP-tagged AT2R (unknown origin) extracted from HEK293 cell membrane assessed as increase in median red fluorescence intensity incubated for 15 mins by flow cytometric analysis; format: cell membranes; settings: filed as agonist
[20] = system: Cerebral artery; experiment: Vaso-constriction activity in male wistar rat middle cerebral artery assessed as arterial contraction at 10 nM; format: functional, tissue-based

Molecule: H-YFHPDVIR-OH
- Activity ([1]; HEK293): inactive
- Activity [2]: inactive
- Activity [3]: inactive
- Activity [4]: inactive

- pKi ([5]; hek293t): < 5
- Ki ([5]; read-out: Ki): > 10 µM
- Ki ([7]; read-out: Ki): 0.0226 µM
- Ki ([7]; read-out: pKi (converted)): 0.0162 µM
- Activity [8]: 0.058
- Activity [9]: inactive
- Ratio Ki [10]: > 500
- Activity [11]: inactive
- Activity ([12]; filed as agonist): Active
Molecule: CC[C@H](C)[C@H](NC(=O)[C@H](Cc1ccc(O)cc1)NC(=O)[C@@H](NC(=O)[C@H](CCCNC(=N)N)NC(=O)CN(C)C(=O)CCOCCOCCNC(=O)CCCCCN1/C(=C\C=C\C2=[N+](C)c3ccccc3C2(C)C)C(C)(C)c2ccccc21)C(C)C)C(=O)N[C@@H](Cc1c[nH]cn1)C(=O)N1CCC[C@H]1C(=O)N[C@@H](C)C(=O)O
- Activity [6]: Active

- Activity ([1]; HEK293, filed as agonist): Dose-dependent-effect
- Activity [13]: Active
- Emax [14]: 0.043 a.u.
- Emax [15]: 0.031 a.u.
- Activity ([3]; filed as agonist): Dose-dependent-effect
- Activity ([4]; filed as agonist): Active
- Activity [12]: inactive
- Activity [16]: Active
Molecule: CC[C@H](C)[C@H](NC(=O)[C@H](Cc1ccc(O)cc1)NC(=O)[C@@H](NC(=O)[C@H](CCCN=C(N)N)NC(=O)CNC)C(C)C)C(=O)N[C@@H](Cc1c[nH]cn1)C(=O)N1CCC[C@H]1C(=O)N[C@@H](C)C(=O)O
- Activity [2]: inactive

- Ki ([5]; read-out: Ki): 5.43 µM
- Ki ([5]; read-out: pKi (converted)): 5.13 µM
- Activity [17]: Active
- Ki ([7]; read-out: Ki): 0.00423 µM
- Ki ([7]; read-out: pKi (converted)): 0.00331 µM
- Activity [18]: Active
- Activity [8]: 0.076
- Activity [19]: Active
- Ratio Ki [10]: 1280
- Activity ([12]; filed as agonist): Active
Molecule: CC[C@H](C)[C@H](NC(=O)[C@H](Cc1ccc(O)cc1)NC(=O)[C@@H](NC(=O)[C@H](CCCNC(=N)N)NC(=O)CN(C)C(=O)CCCCCN1/C(=C\C=C\C2=[N+](C)c3ccccc3C2(C)C)C(C)(C)c2ccccc21)C(C)C)C(=O)N[C@@H](Cc1c[nH]cn1)C(=O)N1CCC[C@H]1C(=O)N[C@@H](C)C(=O)O
- Activity [6]: Active
- Activity ([9]; filed as agonist): Active; Scarce Colocalization Of Compound Was Observed

- Activity [8]: 0.068
Molecule: CC[C@H](C)[C@H](NC(=O)[C@H](Cc1ccc(O)cc1)NC(=O)[C@@H](NC(=O)[C@H](CCCNC(=N)N)NC(=O)[C@H](CC(=O)O)NC(=O)CCOCCOCCNC(=O)CCCCCN1/C(=C\C=C\C2=[N+](C)c3ccccc3C2(C)C)C(C)(C)c2ccccc21)C(C)C)C(=O)N[C@@H](Cc1c[nH]cn1)C(=O)N1CCC[C@H]1C(=O)N[C@@H](Cc1ccccc1)C(=O)O
- Activity [6]: Active
- Activity [20]: Active
